Patent US8906432B2, “Compositions comprising an NFκB-inhibitor and a non-retinoid collagen promoter” (Johnson & Johnson Consumer Companies, Inc., priority 2009, dated 2014)

Key:
Collagen 1A promoter = test: COLLAGEN PROMOTER ASSAY (Collagen 1A promoter-luciferase reporter in H9C2 cells); type: cell-based, rat; conditions: 1 ug/ml of each active (on active basis), transfected H9C2 cells, 24 hours; for Percent Change Over Vehicle (collagen promotion): vehicle DMSO 0.01%
Protocol: Suitable non-retinoid collagen promoters may be determined, for example, using the COLLAGEN PROMOTER ASSAY. The COLLAGEN PROMOTER ASSAY is performed as follows. Rat cardiac myoblasts H9C2, which may be purchased from ATCC (Manassas, Va.), are used. Cultures are maintained in Dulbecco's modified Eagle's medium (DMEM, Invitrogen Life Technologies, Carlsbad, Calif.) supplemented with 10% fetal bovine serum, 2 mM glutamine, 100 units/ml penicillin, and 50 ug/ml streptomycin (Invitrogen life technologies, Carlsbad, Calif.). Cell cultures are transiently transfected with the Collagen 1A promoter-luciferase reporter construct, driving the firefly luciferase gene, which may obtained for example from PREMAS Biotech Pvt. Ltd (Haryana, India). In all transfections, a construct with the thymidine kinase promoter and the Renilla luciferase reporter gene (pRL-TK, Promega, Madison, Wis.) is included as an internal control. Cells grown in 48-well plates are transfected with 0.45 ug total DNA per well using Lipofectamine 2000 (Invitrogen life technologies, Carlsbad, Calif.). One day after transfection, cells are treated with agents at the indicated concentrations for approximately 24 hours before they are lysed for luciferase assays, using Dual-Luciferase Reporter System from Promega (Madison, Wis.), following manufacturer's protocol. The firefly luciferase activity is measured first (representing collagen promoter activity), followed by the renilla luciferase (internal control), using luminometer LMAX, from Molecular Devices (Sunnyvale, Calif.). The ratio of these two luciferase activities (RLU) is used to evaluate the activity of each promoter.
The COLLAGEN PROMOTER ASSAY was performed on the following compounds: Tanacetum parthenium (parthenolide-free feverfew extract from Integrated Botanical Technologies of Ossining, N.Y.) and 4-hexylresorcinol (Synovea HR, from Sytheon Ltd). The compounds were diluted in cell culture media (DMEM Media of Invitrogen, San Diego Calif.) to the concentration of “active” extract as indicated in Table 3 below. […]

NFκB = test: NFκB-INHIBITION TEST (NF-kB gene reporter, TNFα-stimulated FB293 cells, luciferase); type: cell-based; conditions: Homo sapiens, 24 h; series of substituted resorcinols, each 10 ug/ml (Table 2); read-out: Percent NF-kB Inhibition
Protocol: The NFκB-INHIBITION TEST is conducted in the following manner. FB293 cells, a stable transfected human epithelial cell line containing the gene reporter for NF-kB are used. They may be obtained from, e.g., Panomics (Fremont, Calif.). FB293 are plated at a density of 5×10^4 cells/mL in a suitable medium, e.g., Dulbecco's modified Eagle's medium (DMEM) supplemented with 10% fetal bovine serum (Invitrogen, San Diego, Calif.). The FB293 cells are stimulated with 100 ng/mL of Tumor Necrosis Factor-α(TNFα, available from Sigma-Aldrich of St Louis, Mo.) in the presence of the test sample. Separately, a control sample is tested wherein no test sample is applied. Following a 24-hour incubation at 37° C. with 5% CO2, cells are lysed with 40 μl of reporter lysis buffer (Promega, Madison, Wis.). A […] aliquot of the lysate is assayed using a luciferase assay kit (Promega) and counted for 10 s in a Lmax luminometer (Molecular Devices, Sunnyvale, Calif.) with the data represented as the relative light unit/second. Percent NFκB Inhibition of the test sample is calculated as: NFκB Inhibition=[1−(Lsample/Lcontrol)]*100 where Lsample is the luminescence of the sample and Lcontrol is the luminescence of the control. […]

Row | Compound | Percent Change Over Vehicle (collagen promotion) (Collagen 1A promoter) | Percent Change Over Vehicle (collagen promotion) (Collagen 1A promoter; listed as 4-hexylresorcinol) | Collagen 1A Promoter Activity (Collagen 1A promoter; vehicle control = 1.00) | inhibition at 10 µg/mL (NFκB)
1 | CCCCCCc1ccc(O)cc1O [4-Hexylresorcinol] | −3% | −3% | 0.97 ± 0.17 | –
2 | CCCCCCCCCCCC1c2cc(c(O)cc2O)C(CCCCCCCCCCC)c2cc(c(O)cc2O)[C@H](CCCCCCCCCCC)c2cc(c(O)cc2O)[C@H](CCCCCCCCCCC)c2cc1c(O)cc2O (stereo partly shown) [C-Undecylcalix[4]-resorcinarene] | – | – | – | 4.87%
